pIC50: −log10 of the molar value. Values joined by “and” are separate entries in the source; they are usually repeats but may differ in a detail not shown here. Identical values can stand only once. Like-named read-outs stand apart in the source and are kept apart here.
Experiments:
[1] = MTT cytotoxicity assay, IMR90; assay type: cell-based; settings: human, IMR90 normal fibroblasts
Protocol: (§3) LNCaP-S14 (10,000 cells), PC3, DU145 or IMR90 cells (5000 cells) were seeded in 96-well plates and treated with increasing concentrations of the respective SMIPs for 72 h. Cell viability was assessed using the MTT cell proliferation assay (ATCC®, Middlesex, UK) according to the manufacturer's protocol. IC50 was calculated using the BioDataFit 1.02 software http://www.changbioscience.com/stat/ec50.html.

[2] = system: LNCaP cells; assay: Cell cycle analysis by flow cytometry, LNCaP; assay type: cell-based, human
Protocol: (§1) Cells were exposed to SMIPs (40 μM) for 24 h and 48 h. Cells were trypsinized, washed with PBS and suspended in 600 μL PBS. Cells were fixed by adding 1.4 mL cold absolute ethanol and kept at -20°C for at least 12 h. After washing once with PBS, the cells were resuspended in 250 μL PBS containing 2.5 μg RNAse A and incubated for 45 min at room temperature. Staining was done by adding 40 μg/mL of propidium iodine followed by incubation for 15 min at room temperature. DNA-bound fluorescence was read at 564 to 606 nm using FACSort and FACSCanto flow cytometers (BD Biosciences) at the Flow Cytometry Facility of the Sanford-Burnham Medical Research Institute. Distribution of cells in the different cell cycle phase was determined with ModFit LT 3.2.1 or FlowJo 8.6 software. Aggregates were excluded from the analysis manually using pulse shape or identified by automated modelling in ModFit LT.

[3] = system: LNCaP-S14 cells; assay: Cell cycle analysis by flow cytometry, LNCaP-S14; assay type: cell-based, human
Protocol: as §1

[4] = system: DU145 cells; assay: Cell cycle analysis by flow cytometry, DU145; assay type: cell-based, human
Protocol: as §1

[5] = system: IMR90 cells; assay: Cell cycle analysis by flow cytometry, IMR90; assay type: cell-based, human
Protocol: as §1

[6] = system: p27 protein levels in LNCaP-S14 cells; assay: Immunoblot quantification of p27, LNCaP-S14; assay type: cell-based, human
Protocol: (§2) Total cell lysate from cells treated with vehicle (DMSO) or compounds were obtained by incubating cells in lysis buffer (25 mM Tris-HCl pH 7.4, 150 mM NaCl, 0.5% Triton X-100, protease inhibitors) for 15 min at 4°C. The supernatant was collected by centrifugation and the amount of protein was determined with a Bio-Rad protein assay (Bio-Rad) using BSA as standard. Equal amounts of protein were subjected to SDS-PAGE (4%-20% gels, Invitrogen) and transferred to PVDF membranes. The membranes were blocked with TBST (50 mM Tris-HCl pH 7.5, 150 mM NaCl, 0.05% Tween-20) containing 5% non-fat dry milk or bovine serum albumin (BSA) for 1 h at room temperature, followed by incubation in primary antibodies 4°C overnight. Membranes were washed and incubated with secondary antibodies conjugated to HRP (Jackson ImmunoResearch Laboratories) for 1 h at room temperature. Signals were visualized using the ECL Western Blotting Substrate (Pierce Biotechnology, IL, USA) according to the manufacturer's instructions. Membranes were stripped using Restore™ Western Blot Stripping Buffer (Pierce Biotechnology). Films were scanned and quantification of the bands was performed using Image J software http://rsbweb.nih.gov/ij/.

[7] = system: p21 protein levels in LNCaP-S14 cells; assay: Immunoblot quantification of p21, LNCaP-S14; assay type: cell-based, human
Protocol: as §2

[8] = system: p27 protein levels in LNCaP cells; assay: Immunoblot quantification of p27, LNCaP; assay type: cell-based, human
Protocol: as §2

[9] = system: p21 protein levels in LNCaP cells; assay: Immunoblot quantification of p21, LNCaP; assay type: cell-based, human
Protocol: as §2

[10] = system: p27 protein levels in PC3 cells; assay: Immunoblot quantification of p27, PC3; assay type: cell-based, human
Protocol: as §2

[11] = system: p21 protein levels in PC3 cells; assay: Immunoblot quantification of p21, PC3; assay type: cell-based, human
Protocol: as §2

[12] = system: p27 protein levels in DU145 cells; assay: Immunoblot quantification of p27, DU145; assay type: cell-based, human
Protocol: as §2

[13] = system: p21 protein levels in DU145 cells; assay: Immunoblot quantification of p21, DU145; assay type: cell-based, human
Protocol: as §2

[14] = system: p27 protein levels in IMR90 cells; assay: Immunoblot quantification of p27, IMR90; assay type: cell-based, human
Protocol: as §2

[15] = system: p21 protein levels in IMR90 cells; assay: Immunoblot quantification of p21, IMR90; assay type: cell-based, human
Protocol: as §2

[16] = system: p27 stability in LNCaP-S14 cells; assay: Protein half-life by cycloheximide chase; assay type: cell-based, human; settings: LNCaP-S14, 40 μM SMIPs 18 h, then cycloheximide 100 μg/mL; DMSO ~ 1.29 h
Protocol: LNCaP-S14 cells were treated with SMIPs (40 μM) for 18 h followed by the addition of 100 μg/mL cycloheximide (CHX). Cell extracts were obtained as described above at different times after CHX addition. Protein lysate was subjected to SDS-PAGE and immunoblotting for p27, p21 and SKP2. Tubulin was used as loading control. Protein half-lives were calculated using a web based calculator http://www.1728.com/halflife.htm.

[17] = system: LNCaP-S14 cells; assay: Cell Death Detection ELISA (cytoplasmic histone-associated DNA fragments); assay type: cell-based, human
Protocol: Apoptosis was measured using the Cell Death Detection ELISA (Roche, Basel, Switzerland) following the manufacturer's instructions. Briefly, LNCaP-S14 cells (0.1 × 10^6) were seeded in 12-well plates and treated with SMIPs (40 μM) for 24 h. Cells were collected in medium, spun at 1000 rpm, and resuspended in 1 mL PBS at the specified time points (day 1 to day 3). The cell suspension was divided into two parts. The first half was used for determination of cytoplasmic histone-associated DNA fragments (ELISA), the second for protein determination to normalize the ELISA data to the amount of input protein.

[18] = system: PC3 cells; assay: MTT cytotoxicity assay, PC3; settings: Homo sapiens, read-out: IC50 (MTT cytotoxicity)
Protocol: as §3

[19] = system: DU145 cells; assay: MTT cytotoxicity assay, DU145; settings: Homo sapiens, read-out: IC50 (MTT cytotoxicity)
Protocol: as §3

[20] = system: LNCaP-WT cells; assay: MTT cytotoxicity assay, LNCaP-WT; settings: Homo sapiens, read-out: IC50 (MTT cytotoxicity)
Protocol: as §3

[21] = system: LNCaP-S14 cells; assay: MTT cytotoxicity assay, LNCaP-S14; settings: Homo sapiens, 72 h, read-out: IC50 (MTT cytotoxicity)
Protocol: as §3

SMILES: CC(C)(C)c1cc2cc(NC(=O)c3cccs3)ccc2[nH]1 [SMIP001]
- IC50 at 72 h ([1]; IMR90, 0.01 - 40 μM): > 20 µM
- IC50 at 72 h ([1]; IMR90, 0.01 - 80 μM): 40 to 80 µM
- IC50 at 96 h ([1]; IMR90, 0.01 - 80 μM, 96 h): 40 to 80 µM
- Cell cycle distribution G1 [2]: 84.5 and 83.6
- Cell cycle distribution G2 [2]: 7.6 and 6.6
- Cell cycle distribution S [2]: 6.6 and 8.5
- Cell cycle distribution G1 [3]: 84.8 and 86.8
- Cell cycle distribution G2 [3]: 6.3 and 3.5
- Cell cycle distribution S [3]: 7.2 and 6.9
- Cell cycle distribution G1 [4]: 65.6 and 71.1
- Cell cycle distribution G2 [4]: 9.7 and 13.6
- Cell cycle distribution S [4]: 23.9 and 13.4
- Cell cycle distribution G1 [5]: 68.4 and 77.0
- Cell cycle distribution G2 [5]: 15.3 and 14.1
- Cell cycle distribution S [5]: 16.2 and 8.9
- p27 protein level (immunoblot, DMSO = 1.0) [6]: 1.9 ± 0.5
- p21 protein level (immunoblot, DMSO = 1.0) [7]: 2.0 ± 0.6
- p27 protein level (immunoblot, DMSO = 1.0) [8]: 1.5 ± 0.7
- p21 protein level (immunoblot, DMSO = 1.0) [9]: 1.7 ± 0.6
- p27 protein level (immunoblot, DMSO = 1.0) [10]: 1.3 ± 0.6
- p21 protein level (immunoblot, DMSO = 1.0) [11]: 1.1 ± 0.5
- p27 protein level (immunoblot, DMSO = 1.0) [12]: 1.1 ± 0.2
- p21 protein level (immunoblot, DMSO = 1.0) [13]: 1.1 ± 0.3
- p27 protein level (immunoblot, DMSO = 1.0) [14]: 1.0 ± 0.0
- p21 protein level (immunoblot, DMSO = 1.0) [15]: 1.1 ± 0.0
- p27 half-life [16]: No effect
- increase in the amount of mono and oligonucleosomes [17]: three- to fivefold
- pIC50 ([18]; PC-3, 72 h): ~4.10
- pIC50 ([18]; PC-3, 96 h): 4.10
- pIC50 ([19]; DU-145, 72 h): ~4.40
- pIC50 ([19]; DU-145, 96 h): 4.49
- pIC50 ([20]; 72 h): 4.33
- pIC50 ([20]; 96 h): 4.49
- pIC50 [21]: 5.33
